Laboratory results as given in US20240277583A1, “Micellar Mouthwash Composition” (Colgate-Palmolive Company, priority 2022, published 2024).

How the values were obtained:
[1] = Colloid particle (micelle) size by dynamic light scattering; format: physicochemical; conditions: colloid particle diameter
Text: Next, the colloid particle (micelle) size in Formulations A and B as well as Elmex mouthwash is examined.
In contrast, the micelle size of Formulation B is around 14.1 nm, close to that of PEG-40 hydrogenated castor oil (16.0 nm). Although the inflection point of the surface tension curve is not obvious in the Elmex mouthwash, dynamic light scattering detects colloid particles with 12.2 nm diameter, which are likely solubilized oil droplets in the mouthwash product. With the smallest particle size (amine fluoride/coco glucoside<amine fluoride<amine fluoride/PEG-40 hydrogenated castor oil), amine fluoride/cocoyl glucoside complex is most mobile and can likely reach smaller spaces that others cannot reach. This feature would likely enhance the delivery of active encapsulated in the micelle core, and also enhance availability of amine fluoride, therefore improving its antibacterial efficacy.

[2] = Diffusion rate D determined by NMR; format: physicochemical

With `CCCCCCCCCCCCCCCCCCN(CCO)CCCN(CCO)CCO.F.F` [Olaflur, N′-octadecyltrimethylenediamine-N,N,N′-tris(2-ethanol)-dihydrofluoride] the “Micelle size (nm) mean” value [1] was 6.6 nm, the “D in individual solution” value ([2]; ingredient alone in solution) was 4.84 × 10^−6 cm^2/s and the “D in Formulation A” value ([2]; ingredient within Formulation A (Olaflur + coco glucoside)) was 2.27 × 10^−6 cm^2/s. For the same compound, the “D in Formulation B” value ([2]; ingredient within Formulation B (Olaflur + PEG-40 hydrogenated castor oil)) was 4.33 × 10^−6 cm^2/s.
